Assay results published in patent US11180487B2, “Substituted cyanoindoline derivatives as NIK inhibitors” (Janssen Pharmaceutica NV, priority 2016, dated 2021).

How the values were obtained:
[1] = biological target: recombinant human NF-kappaB-inducing kinase (NIK/MAP3K14) (Homo sapiens, UniProt Q99558); assay: Inhibition of auto-phosphorylation of recombinant human NIK/MAP3K14 activity (AlphaScreen), Biological Assay A; assay type: biochemical; settings: averaged values over all measurements on all batches
Experimental: Inhibition of Auto-Phosphorylation of Recombinant Human NF-kappaB-Inducing Kinase (NIK/MAP3K14) Activity (AlphaScreen®)
NIK/MAP3K14 auto-phosphorylation activity was measured using the AlphaScreen® (αscreen) format (Perkin Elmer). All compounds tested were dissolved in dimethyl sulfoxide (DMSO) and further dilutions were made in assay buffer. Final DMSO concentration was 1% (v/v) in assays. Assay buffer was 50 mM Tris pH 7.5 containing 1 mM EGTA (ethylene glycol tetraacetic acid), 1 mM DTT (dithiothreitol), 0.1 mM Na3VO4, 5 mM MgCl2, 0.01% Tween® 20. Assays were carried out in 384 well Alphaplates (Perkin Elmer). Incubations consisted of compound, 25 microM Adenosine-5′-triphosphate (ATP), and 0.2 nM NIK/MAP3K14. Incubations were initiated by addition of GST-tagged NIK/MAP3K14 enzyme, carried out for 1 h at 25° C. and terminated by addition of stop buffer containing anti-phospho-IKK Ser176/180 antibody. Protein A Acceptor and Glutathione-Donor beads were added before reading using an EnVision® Multilabel Plate Reader (Perkin Elmer). Signal obtained in the wells containing blank samples was subtracted from all other wells and IC50's were determined by fitting a sigmoidal curve to % inhibition of control versus Log10 compound concentration.

[2] = test system: JJN-3 (NIK translocated) multiple myeloma cells; assay: Antiproliferative activity on JJN-3 multiple myeloma cells (CellTiter-Glo, 96 hr), Biological Assay C; assay type: cell-based, human; settings: Homo sapiens, JJN-3, 96 h, JJN-3 (NIK translocated) cells, averaged values, read-out: JJN-3 Proliferation inhibition (IC50 (nM))
Experimental: (§1) Determination of Antiproliferative Activity on JJN-3 (NIK Translocated) and KMS12-BM (NIK WT) Multiple Myeloma Cells
(§2) All compounds tested were dissolved in DMSO and further dilutions were made in culture medium. Final DMSO concentration was 0.3% (v/v) in cell proliferation assays. Viability was assessed using CellTiter-Glo cell viability assay kit (Promega). The human JJN-3 and KMS12-BM cells (DSMZ) were cultured in RPMI 1640 medium supplemented with 2 mM L-glutamine, and 10% fetal calf serum (PAA). Cells were routinely kept as suspension cells at 37° C. in a humidified 5% CO2 atmosphere. Cells were passaged at a seeding density of 0.2×10^6/ml twice a week. Cells were seeded in black tissue culture treated 96-well plates (Perkin Elmer). Densities used for plating ranged from 15000 (JJN3) to 20000 (KMS12BM) cells per well in a total volume of 135 μl medium. Drugs and/or solvents were added (15 μl) to a final volume of 150 μl. Following 96 hr of treatment, plates were removed from the incubator and allowed to equilibrate to room temperature for approx 10 min. 75 μl CellTiter-Glo reagent was added to each well that was then covered (Perkin Elmer Topseal) and shaken on plate shaker for 10 min. Luminescence was measured on a HTS Topcount (Perkin Elmer).
(§3) Within an experiment, the results for each treatment were the mean of 2 replicate wells. For initial screening purposes, compounds were tested using a 9 point dilution curve (serial 1:3 dilutions). For each experiment, controls (containing no drug) and a blank incubation (containing cells read at the time of compound addition) were run in parallel. The blank value was subtracted from all control and sample values. For each sample, the mean value for cell growth (in relative light units) was expressed as a percentage of the mean value for cell growth of the control.

[3] = test system: KMS12-BM (NIK WT) multiple myeloma cells; assay: Antiproliferative activity on KMS12-BM multiple myeloma cells (CellTiter-Glo, 96 hr), Biological Assay C; assay type: cell-based, human; settings: Homo sapiens, KMS-12-BM, 96 h, averaged values, read-out: KMS-12 Proliferation inhibition (IC50 (nM))
Experimental: as §1, §2, §3

recombinant human NF-kappaB-inducing kinase (NIK/MAP3K14), sequence (Q99558 whole entry): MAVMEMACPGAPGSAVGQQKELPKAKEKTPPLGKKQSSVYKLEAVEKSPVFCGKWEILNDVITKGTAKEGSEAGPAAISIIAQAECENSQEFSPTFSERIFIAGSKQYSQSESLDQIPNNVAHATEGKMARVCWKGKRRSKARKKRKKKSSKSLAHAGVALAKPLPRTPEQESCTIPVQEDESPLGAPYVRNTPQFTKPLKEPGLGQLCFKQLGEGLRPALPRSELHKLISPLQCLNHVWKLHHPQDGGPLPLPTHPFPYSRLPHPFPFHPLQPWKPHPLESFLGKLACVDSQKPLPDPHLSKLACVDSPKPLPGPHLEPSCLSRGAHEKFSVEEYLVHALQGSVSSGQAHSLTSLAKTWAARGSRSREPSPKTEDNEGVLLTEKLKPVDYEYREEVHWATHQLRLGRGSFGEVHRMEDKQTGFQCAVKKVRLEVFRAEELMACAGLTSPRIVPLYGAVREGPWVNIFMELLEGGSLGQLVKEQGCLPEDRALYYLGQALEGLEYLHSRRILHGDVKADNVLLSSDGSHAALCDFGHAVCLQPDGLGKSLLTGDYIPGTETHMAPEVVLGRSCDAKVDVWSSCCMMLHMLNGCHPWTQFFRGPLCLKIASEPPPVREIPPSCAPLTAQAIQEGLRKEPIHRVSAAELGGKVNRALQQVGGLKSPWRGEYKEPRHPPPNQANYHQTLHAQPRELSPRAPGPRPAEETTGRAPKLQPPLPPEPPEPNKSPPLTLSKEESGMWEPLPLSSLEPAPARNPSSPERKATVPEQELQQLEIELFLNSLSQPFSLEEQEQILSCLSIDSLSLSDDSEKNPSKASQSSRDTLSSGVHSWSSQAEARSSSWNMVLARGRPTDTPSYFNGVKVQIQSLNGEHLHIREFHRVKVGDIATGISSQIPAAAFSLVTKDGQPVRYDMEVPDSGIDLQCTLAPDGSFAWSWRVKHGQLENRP

## CC1(CO)CNc2c(C#N)cc(-c3ccnc(Nc4ccc(OC5CCOCC5)c(C(F)(F)F)c4)n3)cc21 (stereo not drawn) [Compound 37]
other
  melting point: 221 °C
[1]
  IC50: 37.2 nM
[2]
  IC50: 17 nM
[3]
  IC50: 4170 nM

## CC1(CO)CNc2c(C#N)cc(-c3ccnc(Nc4cc(C(F)(F)F)ccc4OCCO)n3)cc21 (stereo not drawn) [Compound 38]
other
  melting point: 190 °C
[1]
  IC50: 30.9 nM
[2]
  IC50: 182 nM
[3]
  IC50: > 10000 nM

## CC1(CO)CNc2c(C#N)cc(-c3ccnc(Nc4cc(Cl)ccc4OCCO)n3)cc21 (stereo not drawn) [Compound 40]
other
  melting point: 236 °C
[1]
  IC50: 8.7 nM
[2]
  IC50: 155 nM
[3]
  IC50: > 10000 nM

## CCN1CCC(c2ccc(Nc3nccc(-c4cc(C#N)c5c(c4)C(C)(CO)CN5)n3)cc2Cl)CC1 (stereo not drawn) [Compound 41]
other
  melting point: > 260 °C
[1]
  IC50: 1.7 nM
[2]
  IC50: 13 nM
[3]
  IC50: 110 nM

## CC(C)c1ccc(COc2cccc(Nc3nccc(-c4cc(C#N)c5c(c4)C(C)(CO)CN5)n3)c2)cc1 (stereo not drawn) [Compound 42]
other
  melting point: 183 °C
[1]
  IC50: 309 nM
[2]
  IC50: 4270 nM
[3]
  IC50: > 10000 nM

## CN1CCC(Oc2ccc(Nc3nccc(-c4cc(C#N)c5c(c4)C(C)(CO)CN5)n3)cc2C(F)(F)F)CC1 (stereo not drawn) [Compound 43]
other
  melting point: 237 °C
[1]
  IC50: 2.5 nM
[2]
  IC50: 9 nM
[3]
  IC50: 251 nM

## CNCCOc1ccc(Cl)cc1Nc1nccc(-c2cc(C#N)c3c(c2)C(C)(CO)CN3)n1 (stereo not drawn) [Compound 44]
other
  melting point: 168 °C
[1]
  IC50: 8.3 nM
[2]
  IC50: 219 nM
[3]
  IC50: > 10000 nM

## COc1ccc(Cl)cc1Nc1ncc(F)c(-c2cc(C#N)c3c(c2)C(C)(CO)CN3)n1 (stereo not drawn) [Compound 47]
other
  melting point: > 250 °C
[1]
  IC50: 15.1 nM
[2]
  IC50: 776 nM
[3]
  IC50: > 10000 nM

## COc1ccc(Cl)cc1Nc1ncc(F)c(-c2cc(C#N)c3c(c2)[C@@](C)(CO)CN3)n1 [Compound 48]
other
  melting point: > 250 °C
[1]
  IC50: 8.9 nM
[2]
  IC50: 447 nM
[3]
  IC50: > 10000 nM

## CC1(CO)CNc2c(C#N)cc(-c3ccnc(Nc4cc(Cl)ccc4C(F)(F)F)n3)cc21 (stereo not drawn) [Compound 49]
other
  melting point: 172 °C
[1]
  IC50: 24.6 nM
[2]
  IC50: 1620 nM
[3]
  IC50: > 10000 nM

## CC1CN(Cc2ccc(Nc3nccc(-c4cc(C#N)c5c(c4)C(C)(CO)CN5)n3)cc2C(F)(F)F)CC(C)N1C (stereo not drawn) [Compound 50]
other
  melting point: 190 °C
[1]
  IC50: 3 nM
[2]
  IC50: 9 nM
[3]
  IC50: 102 nM

## Cc1cc(Br)c(Cl)cc1Nc1nccc(-c2cc(C#N)c3c(c2)C(C)(CO)CN3)n1 (stereo not drawn) [Compound 51]
other
  melting point: 200 °C
[1]
  IC50: 49 nM
[2]
  IC50: 363 nM
[3]
  IC50: > 10000 nM

## CC1(CO)CNc2c(C#N)cc(-c3ccnc(Nc4cc(Cl)ccc4OC(F)(F)F)n3)cc21 (stereo not drawn) [Compound 52]
other
  melting point: 217 °C
[1]
  IC50: 41.7 nM
[2]
  IC50: 676 nM
[3]
  IC50: > 10000 nM

## Cc1c(Nc2nccc(-c3cc(C#N)c4c(c3)C(C)(CO)CN4)n2)cc(Cl)cc1C(=O)N(C)C (stereo not drawn) [Compound 53]
other
  melting point: 245 °C
[1]
  IC50: 3.6 nM
[2]
  IC50: 33 nM
[3]
  IC50: 1260 nM

## CN(C)C(=O)Cc1ccc(Cl)cc1Nc1nccc(-c2cc(C#N)c3c(c2)C(C)(CO)CN3)n1 (stereo not drawn) [Compound 54]
other
  melting point: 154 °C
[1]
  IC50: 9.8 nM
[2]
  IC50: 275 nM
[3]
  IC50: > 10000 nM

## CC(C)N1CCN(C(=O)Cc2ccc(Cl)cc2Nc2nccc(-c3cc(C#N)c4c(c3)C(C)(CO)CN4)n2)CC1 (stereo not drawn) [Compound 55]
other
  melting point: 135 °C
[1]
  IC50: 15.5 nM
[2]
  IC50: 282 nM
[3]
  IC50: > 10000 nM

## CN(C)C(=O)c1ccc(Cl)cc1Nc1nccc(-c2cc(C#N)c3c(c2)C(C)(CO)CN3)n1 (stereo not drawn) [Compound 56]
other
  melting point: 170 °C
[1]
  IC50: 126 nM
[2]
  IC50: 1740 nM
[3]
  IC50: > 10000 nM

## COCCOc1ccc(Cl)cc1Nc1nccc(-c2cc(C#N)c3c(c2)[C@](C)(CO)CN3)n1 [Compound 57]
other
  melting point: 188 °C
[1]
  IC50: 50.1 nM
[2]
  IC50: > 10000 nM
[3]
  IC50: > 10000 nM
